Experimental data reported in ChEMBL document CHEMBL1136208, “Bone-targeted Src kinase inhibitors: novel pyrrolo- and pyrazolopyrimidine analogues” (Bioorg Med Chem Lett, 2003).

The compounds below were run against Proto-oncogene tyrosine-protein kinase Src (Homo sapiens, UniProt P12931) (assay: In vitro inhibition of Src protein tyrosine kinase using the Scintillation proximity kinase assay.).
Set-up: species or system Oryctolagus cuniculus

Sequence of Proto-oncogene tyrosine-protein kinase Src (P12931 2-536 limits assumed): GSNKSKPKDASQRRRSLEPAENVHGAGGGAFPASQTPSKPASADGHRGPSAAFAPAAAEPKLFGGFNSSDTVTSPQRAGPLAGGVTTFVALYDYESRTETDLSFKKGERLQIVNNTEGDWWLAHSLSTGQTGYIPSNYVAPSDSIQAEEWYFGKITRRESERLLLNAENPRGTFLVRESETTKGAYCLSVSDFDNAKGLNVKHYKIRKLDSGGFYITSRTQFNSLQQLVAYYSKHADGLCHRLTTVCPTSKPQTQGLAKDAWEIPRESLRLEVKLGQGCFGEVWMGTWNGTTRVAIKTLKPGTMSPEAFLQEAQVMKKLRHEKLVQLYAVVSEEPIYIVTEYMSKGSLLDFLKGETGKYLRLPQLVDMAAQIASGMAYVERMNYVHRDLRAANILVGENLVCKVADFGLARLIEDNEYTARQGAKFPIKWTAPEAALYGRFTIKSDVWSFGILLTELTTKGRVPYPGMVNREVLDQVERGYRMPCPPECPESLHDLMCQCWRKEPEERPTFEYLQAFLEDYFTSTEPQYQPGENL

| Structure (SMILES) | IC50 |
| --- | --- |
| Nc1ncnc2c1c(-c1cccc(O)c1)nn2-c1cccc(P(=O)(O)CC(=O)O)c1 | 20 nM |
| Cc1ccc(-c2nn(CCCCOP(=O)(O)CP(=O)(O)O)c3ncnc(N)c23)cc1 | 680 nM |
| Cc1ccc(-c2nn(-c3cccc(C(=O)NCc4ccc(P(=O)(O)O)c(P(=O)(O)O)c4)c3)c3ncnc(N)c23)cc1 | 320 nM |
| COc1cccc(-c2nn(-c3cccc(P(=O)(O)CC(=O)O)c3)c3ncnc(N)c23)c1 | 1600 nM |
| COc1cccc(-c2cn(-c3ccc(C(=O)NCCCP(=O)(O)CP(=O)(O)O)cc3)c3ncnc(N)c23)c1 | 250 nM |
| COc1cccc(-c2cn(-c3ccc(C(=O)Nc4ccc(C(P(=O)(O)O)P(=O)(O)O)cc4)cc3)c3ncnc(N)c23)c1 | 40000 nM |
| COc1cccc(-c2cn(-c3ccc(CCOP(=O)(O)CP(=O)(O)O)cc3)c3ncnc(N)c23)c1 | 700 nM |
| COc1cccc(-c2cn(-c3cccc(C(=O)O)c3)c3ncnc(N)c23)c1 | 4000 nM |
| COc1cccc(-c2cn(-c3ccc(C(=O)Nc4ccc(P(=O)(O)O)c(P(=O)(O)O)c4)cc3)c3ncnc(N)c23)c1 | 870 nM |
| COc1cccc(-c2cn(-c3cccc(C(=O)Nc4ccc(P(=O)(O)O)c(P(=O)(O)O)c4)c3)c3ncnc(N)c23)c1 | 2500 nM |
| Nc1ncnc2c1c(-c1cccc(O)c1)cn2-c1ccc(CCO)cc1 | 40 nM |
| Nc1ncnc2c1c(-c1cccc(O)c1)cn2-c1ccc(CCOP(=O)(O)CP(=O)(O)O)cc1 | 60 nM |
| COc1cccc(-c2cn(-c3ccc(C(=O)O)cc3)c3ncnc(N)c23)c1 | 1500 nM |
| CN(CCO)CCc1ccc(-n2cc(-c3cccc(O)c3)c3c(N)ncnc32)cc1 | 40 nM |
| CN(CCOP(=O)(O)CP(=O)(O)O)CCc1ccc(-n2cc(-c3cccc(O)c3)c3c(N)ncnc32)cc1 | 4 nM |
| Cc1ccc(-c2nn(-c3cccc(C(=O)NCCCP(=O)(O)CP(=O)(O)O)c3)c3ncnc(N)c23)cc1 | 400 nM |
| COc1cccc(-c2cn(-c3cccc(C(=O)Nc4ccc(C(P(=O)(O)O)P(=O)(O)O)cc4)c3)c3ncnc(N)c23)c1 | 19000 nM |
| COc1cccc(-c2cn(-c3ccc(CCN(C)CCO)cc3)c3ncnc(N)c23)c1 | 160 nM |
| COc1cccc(-c2cn(-c3cccc(C(=O)NCCCP(=O)(O)CP(=O)(O)O)c3)c3ncnc(N)c23)c1 | 360 nM |
| COc1cccc(-c2cn(-c3ccc(CCN(C)CCOP(=O)(O)CP(=O)(O)O)cc3)c3ncnc(N)c23)c1 | 310 nM |
